According to PubChem BioAssay AID1259407 (Chemical Carcinogenesis Research Information System (CCRIS), 2018):
The source made the active and inactive calls. How the calls were made is not given here.

Tested on: CCRIS mutagenicity, Ames/micronucleus/aberration tests
Experiment: CCRIS mutagenicity studies
[1] = Test System: AMES SALMONELLA TYPHIMURIUM, Strain/Indicator: TA98, Metabolic Activation: HAMSTER, LIVER, S-9, AROCLOR 1254, Method: STANDARD PLATE
[2] = Test System: AMES SALMONELLA TYPHIMURIUM, Strain/Indicator: TA98, Metabolic Activation: NONE, Method: STANDARD PLATE
[3] = Test System: AMES SALMONELLA TYPHIMURIUM, Strain/Indicator: TA98, Metabolic Activation: RAT, LIVER, S-9, AROCLOR 1254, Method: STANDARD PLATE
[4] = Test System: AMES SALMONELLA TYPHIMURIUM, Strain/Indicator: TA100, Metabolic Activation: HAMSTER, LIVER, S-9, AROCLOR 1254, Method: STANDARD PLATE
[5] = Test System: AMES SALMONELLA TYPHIMURIUM, Strain/Indicator: TA100, Metabolic Activation: NONE, Method: STANDARD PLATE
[6] = Test System: AMES SALMONELLA TYPHIMURIUM, Strain/Indicator: TA100, Metabolic Activation: RAT, LIVER, S-9, AROCLOR 1254, Method: STANDARD PLATE
[7] = Test System: AMES SALMONELLA TYPHIMURIUM, Strain/Indicator: TA1535, Metabolic Activation: HAMSTER, LIVER, S-9, AROCLOR 1254, Method: STANDARD PLATE
[8] = Test System: AMES SALMONELLA TYPHIMURIUM, Strain/Indicator: TA1535, Metabolic Activation: NONE, Method: STANDARD PLATE
[9] = Test System: AMES SALMONELLA TYPHIMURIUM, Strain/Indicator: TA1535, Metabolic Activation: RAT, LIVER, S-9, AROCLOR 1254, Method: STANDARD PLATE
[10] = Test System: AMES SALMONELLA TYPHIMURIUM, Strain/Indicator: TA1537, Metabolic Activation: HAMSTER, LIVER, S-9, AROCLOR 1254, Method: STANDARD PLATE
[11] = Test System: AMES SALMONELLA TYPHIMURIUM, Strain/Indicator: TA1537, Metabolic Activation: NONE, Method: STANDARD PLATE
[12] = Test System: AMES SALMONELLA TYPHIMURIUM, Strain/Indicator: TA1537, Metabolic Activation: RAT, LIVER, S-9, AROCLOR 1254, Method: STANDARD PLATE
[13] = Test System: AMES SALMONELLA TYPHIMURIUM, Strain/Indicator: TA1538, Metabolic Activation: HAMSTER, LIVER, S-9, AROCLOR 1254, Method: STANDARD PLATE
[14] = Test System: AMES SALMONELLA TYPHIMURIUM, Strain/Indicator: TA1538, Metabolic Activation: NONE, Method: STANDARD PLATE
[15] = Test System: AMES SALMONELLA TYPHIMURIUM, Strain/Indicator: TA1538, Metabolic Activation: RAT, LIVER, S-9, AROCLOR 1254, Method: STANDARD PLATE
[16] = Test System: MOUSE LYMPHOMA, Strain/Indicator: L5178Y (TK+/TK-), Metabolic Activation: NONE, Method: SUSPENSION/PLATE
[17] = Test System: MOUSE LYMPHOMA, Strain/Indicator: L5178Y (TK+/TK-), Metabolic Activation: RAT, LIVER, S-9, AROCLOR 1254, Method: SUSPENSION/PLATE
[18] = Test System: AMES SALMONELLA TYPHIMURIUM, Strain/Indicator: TA98, Metabolic Activation: NONE, Method: PREINCUBATION
[19] = Test System: AMES SALMONELLA TYPHIMURIUM, Strain/Indicator: TA100, Metabolic Activation: NONE, Method: PREINCUBATION

Row | Compound | mutagenic call [2] | mutagenic call [3] | mutagenic call [5] | mutagenic call [6] | mutagenic call [8] | mutagenic call [9] | mutagenic call [11] | mutagenic call [12] | mutagenic call [14] | mutagenic call [15] | mutagenic call [18] | mutagenic call [19] | other results
1 | Nc1nc2ccc([N+](=O)[O-])cc2s1 | active; positive | active; positive | inactive; negative | active; positive | inactive; negative | inactive; negative | inactive; negative | inactive; negative | active; positive | active; positive |  |  | mutagenic call [1]: active; positive; mutagenic call [4]: active; positive; mutagenic call [7]: active; positive; mutagenic call [10]: active; positive; mutagenic call [13]: active; positive; mutagenic call [16]: inactive; negative. reevaluation of results: negative; mutagenic call [17]: inactive; negative. reevaluation of results: negative
2 | OC[C@@H](O)[C@@H](O)[C@H](O)[C@H](O)CO | inactive; negative | inactive; negative | inactive; negative | inactive; negative | inactive; negative | inactive; negative | inactive; negative | inactive; negative | inactive; negative | inactive; negative |  |  | mutagenic call (End Point: IN VITRO CHROMOSOMAL ABERRATIONS, Test System: CHO CELLS, Metabolic Activation: NONE): inactive; negative; mutagenic call (End Point: IN VITRO CHROMOSOMAL ABERRATIONS, Test System: CHO CELLS, Metabolic Activation: RAT, LIVER, S-9, AROCLOR 1254): inactive; negative; mutagenic call (Test System: AMES SALMONELLA TYPHIMURIUM, Strain/Indicator: TA97, Metabolic Activation: NONE, Method: PREINCUBATION): inactive; negative; mutagenic call (Test System: AMES SALMONELLA TYPHIMURIUM, Strain/Indicator: TA97, Metabolic Activation: S-9, Method: PREINCUBATION): inactive; negative; mutagenic call (Test System: AMES SALMONELLA TYPHIMURIUM, Strain/Indicator: TA102, Metabolic Activation: NONE, Method: PREINCUBATION): inactive; negative; mutagenic call (Test System: AMES SALMONELLA TYPHIMURIUM, Strain/Indicator: TA102, Metabolic Activation: S-9, Method: PREINCUBATION): inactive; negative; mutagenic call (Test System: E. COLI, Strain/Indicator: WP2, Metabolic Activation: NONE, Method: STANDARD PLATE): inactive; negative; mutagenic call (Test System: E. COLI, Strain/Indicator: WP2, Metabolic Activation: RAT, LIVER, S-9, AROCLOR 1254, Method: STANDARD PLATE): inactive; negative
3 | Clc1ccc(C(Cl)(Cl)Cl)c(Cl)c1 |  |  |  |  |  |  |  |  |  |  | inactive; negative | inactive; negative | mutagenic call (Test System: AMES SALMONELLA TYPHIMURIUM, Strain/Indicator: TA98, Metabolic Activation: HAMSTER, LIVER, S-9, AROCLOR 1254 (30%), Method: PREINCUBATION): active; positive; mutagenic call (Test System: AMES SALMONELLA TYPHIMURIUM, Strain/Indicator: TA98, Metabolic Activation: RAT, LIVER, S-9, AROCLOR 1254 (30%), Method: PREINCUBATION): active; positive; mutagenic call (Test System: AMES SALMONELLA TYPHIMURIUM, Strain/Indicator: TA100, Metabolic Activation: HAMSTER, LIVER, S-9, AROCLOR 1254 (30%), Method: PREINCUBATION): active; positive; mutagenic call (Test System: AMES SALMONELLA TYPHIMURIUM, Strain/Indicator: TA100, Metabolic Activation: RAT, LIVER, S-9, AROCLOR 1254 (30%), Method: PREINCUBATION): active; positive
4 | Cc1ccc2nc3c(ccc4ccccc43)c(CO)c2c1 |  |  |  | active; positive |  |  |  |  |  |  |  |  | 
5 | CS(=O)CC[C@H](N)C(=O)O.Cc1ccc(NCC(=O)N(CC(=O)O)CC(=O)O)c(C)c1.[H+].[H+].[Pt] |  |  |  |  |  |  |  |  |  |  |  |  | mutagenic call (Test System: MOUSE LYMPHOMA, Strain/Indicator: L5178Y(LY-R) (HGPRT)/6-THIOGUANINE, Metabolic Activation: NONE): active; positive
6 | C[n+]1cccc(C(=O)[O-])c1 | inactive; negative | inactive; negative | inactive; negative | inactive; negative | inactive; negative | inactive; negative | inactive; negative | inactive; negative | inactive; negative | inactive; negative |  |  | mutagenic call [1]: inactive; negative; mutagenic call (Test System: AMES SALMONELLA TYPHIMURIUM, Strain/Indicator: TA98, Metabolic Activation: RAT LIVER S-9, CHLOROPHENE, Method: STANDARD PLATE (COMPOUND HEATED AT 250 DEGREES CELSIUS FOR 20 MIN)): active; positive; mutagenic call [4]: inactive; negative; mutagenic call [7]: inactive; negative; mutagenic call [10]: inactive; negative; mutagenic call [13]: inactive; negative; mutagenic call [16]: inactive; negative. reevaluation of results: inconclusive; mutagenic call [17]: inactive; negative. reevaluation of results: inconclusive
7 | Fc1cnc2ccc3cccnc3c2c1 |  |  |  |  |  |  |  |  |  |  |  |  | mutagenic call (Test System: AMES SALMONELLA TYPHIMURIUM, Strain/Indicator: TA100, Metabolic Activation: RAT, LIVER, S-9, PHENOBARBITAL AND 5,6-BENZOFLAVONE, Method: PREINCUBATION): active; positive
8 | O=C(O)C(Br)(Br)Br |  |  |  |  |  |  |  |  |  |  | inactive; negative | inactive; negative | mutagenic call (Test System: AMES SALMONELLA TYPHIMURIUM, Strain/Indicator: RSJ100, Metabolic Activation: NONE, Method: PREINCUBATION): inactive; negative; mutagenic call (Test System: AMES SALMONELLA TYPHIMURIUM, Strain/Indicator: RSJ100, Metabolic Activation: RAT LIVER S-9, Method: PREINCUBATION): inactive; negative; mutagenic call (Test System: AMES SALMONELLA TYPHIMURIUM, Strain/Indicator: TA98, Metabolic Activation: RAT LIVER S-9, Method: PREINCUBATION): inactive; negative; mutagenic call (Test System: AMES SALMONELLA TYPHIMURIUM, Strain/Indicator: TA100, Metabolic Activation: NONE, Method: FLUCTUATION TEST): active; positive; mutagenic call (Test System: AMES SALMONELLA TYPHIMURIUM, Strain/Indicator: TA100, Metabolic Activation: RAT LIVER S-9, Method: PREINCUBATION): inactive; negative; mutagenic call (Test System: AMES SALMONELLA TYPHIMURIUM, Strain/Indicator: TA100, Metabolic Activation: RAT, LIVER, S-9, AROCLOR 1254, Method: FLUCTUATION TEST): active; positive
9 | O.O.O=C([O-])C(=O)[O-].O=C([O-])C(=O)[O-].[K+].[K+].[Pt+2] |  |  |  |  |  |  |  |  |  |  | inactive; negative | inactive; negative | mutagenic call (Test System: AMES SALMONELLA TYPHIMURIUM, Strain/Indicator: TA98, Metabolic Activation: RAT, LIVER, S-9, AROCLOR 1254, Method: PREINCUBATION): inactive; negative; mutagenic call (Test System: AMES SALMONELLA TYPHIMURIUM, Strain/Indicator: TA100, Metabolic Activation: RAT, LIVER, S-9, AROCLOR 1254, Method: PREINCUBATION): inactive; negative
